Experiment: LUV membrane polarisation, oxonol VI, Na+/K+ gradient
Format: biochemical
Settings: 100 mM NaCl inside, 100 mM KCl outside, pH 7.2, 0.5 MIC

valinomycin
diffusion potential in the cation gradient LUV model, in words: inside positive polarisation

— article PMC11452689 (Communications Biology, 2024)
